Source: publication PMC12193096 (International Journal of Molecular Sciences, 2025)

Columns and labels:
[1] = biological target: T1, LYN (Homo sapiens, UniProt P07948); experiment: live-cell confocal co-localization (HaloTag recruitment to endosome/F-actin) in HeLa cells; format: cell-based
T1 construct: EGFP-fusion of wild-type LYN

[2] = biological target: T2, SRC (Homo sapiens, UniProt P12931); experiment: Western blot of pY416 autophosphorylation of EGFP-SRC in HeLa cells; live-cell co-localization imaging; format: cell-based
T2 construct: full-length SRC (EGFP-SRC)
T2 sequence (P12931 2-536): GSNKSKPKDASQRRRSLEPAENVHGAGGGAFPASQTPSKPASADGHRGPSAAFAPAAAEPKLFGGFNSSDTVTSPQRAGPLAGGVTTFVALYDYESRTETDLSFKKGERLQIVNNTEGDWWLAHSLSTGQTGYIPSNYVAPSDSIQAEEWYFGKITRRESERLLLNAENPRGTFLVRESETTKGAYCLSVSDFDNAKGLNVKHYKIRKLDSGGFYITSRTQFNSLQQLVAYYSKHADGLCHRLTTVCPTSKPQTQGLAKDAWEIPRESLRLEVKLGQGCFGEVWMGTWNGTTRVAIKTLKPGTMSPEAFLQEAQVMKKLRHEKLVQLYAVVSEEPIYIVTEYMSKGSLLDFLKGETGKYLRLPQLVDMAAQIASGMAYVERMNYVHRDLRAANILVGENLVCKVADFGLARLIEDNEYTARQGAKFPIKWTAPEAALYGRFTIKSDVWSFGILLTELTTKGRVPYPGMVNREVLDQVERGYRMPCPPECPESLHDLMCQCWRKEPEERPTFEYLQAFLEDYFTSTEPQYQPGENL

[3] = biological target: T3, BTK (Homo sapiens, UniProt Q06187); experiment: live-cell confocal co-localization (HaloTag recruitment to endosome/F-actin) in HeLa cells; format: cell-based
T3 construct: EGFP-fusion of wild-type BTK
T3 sequence (Q06187 whole entry, the tested form may be a part): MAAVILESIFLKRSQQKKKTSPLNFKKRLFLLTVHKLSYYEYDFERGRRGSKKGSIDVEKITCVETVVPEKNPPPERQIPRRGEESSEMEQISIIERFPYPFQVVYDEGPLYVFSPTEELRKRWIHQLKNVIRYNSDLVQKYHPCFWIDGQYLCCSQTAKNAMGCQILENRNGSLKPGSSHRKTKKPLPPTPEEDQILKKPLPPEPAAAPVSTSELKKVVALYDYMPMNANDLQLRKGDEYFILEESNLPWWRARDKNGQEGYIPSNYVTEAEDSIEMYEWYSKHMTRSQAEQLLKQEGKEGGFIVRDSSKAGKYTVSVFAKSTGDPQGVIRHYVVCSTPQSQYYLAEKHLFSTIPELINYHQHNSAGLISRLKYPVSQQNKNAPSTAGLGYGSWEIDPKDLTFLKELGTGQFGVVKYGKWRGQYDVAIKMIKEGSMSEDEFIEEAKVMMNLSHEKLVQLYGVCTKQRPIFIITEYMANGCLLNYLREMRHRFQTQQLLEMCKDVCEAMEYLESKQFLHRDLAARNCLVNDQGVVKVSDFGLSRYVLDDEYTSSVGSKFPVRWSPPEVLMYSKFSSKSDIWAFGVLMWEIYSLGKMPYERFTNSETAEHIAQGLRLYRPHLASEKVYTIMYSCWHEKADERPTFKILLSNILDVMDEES

[4] = biological target: T4, CSK (Homo sapiens, UniProt P41240); experiment: as above; format: cell-based
T4 construct: EGFP-fusion of wild-type CSK
Source text: live-cell confocal co-localization (HaloTag recruitment to endosome/F-actin) in HeLa cells on CSK | […]

[5] = biological target: T5, YES1 (Homo sapiens, UniProt P07947); experiment: as above; format: cell-based
T5 construct: EGFP-fusion of wild-type YES1
T5 sequence (P07947 2-543): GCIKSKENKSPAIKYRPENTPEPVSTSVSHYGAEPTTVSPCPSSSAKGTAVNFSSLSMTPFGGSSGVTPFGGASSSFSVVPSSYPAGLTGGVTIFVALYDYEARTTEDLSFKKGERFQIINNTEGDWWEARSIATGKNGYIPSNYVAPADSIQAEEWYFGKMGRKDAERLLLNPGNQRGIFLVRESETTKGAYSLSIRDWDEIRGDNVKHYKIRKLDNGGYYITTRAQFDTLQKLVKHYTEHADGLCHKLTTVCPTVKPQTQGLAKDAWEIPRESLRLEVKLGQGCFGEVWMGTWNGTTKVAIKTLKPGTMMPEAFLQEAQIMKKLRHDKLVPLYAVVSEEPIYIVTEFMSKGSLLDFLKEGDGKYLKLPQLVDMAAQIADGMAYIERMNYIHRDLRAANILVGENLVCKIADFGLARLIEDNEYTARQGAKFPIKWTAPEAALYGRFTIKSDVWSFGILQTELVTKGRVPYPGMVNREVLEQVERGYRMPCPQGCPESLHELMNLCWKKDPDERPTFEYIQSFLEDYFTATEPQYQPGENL

[6] = biological target: T6, HCK (Homo sapiens, UniProt P08631); experiment: as above; format: cell-based
T6 construct: EGFP-fusion of wild-type HCK
T6 sequence (P08631 2-526): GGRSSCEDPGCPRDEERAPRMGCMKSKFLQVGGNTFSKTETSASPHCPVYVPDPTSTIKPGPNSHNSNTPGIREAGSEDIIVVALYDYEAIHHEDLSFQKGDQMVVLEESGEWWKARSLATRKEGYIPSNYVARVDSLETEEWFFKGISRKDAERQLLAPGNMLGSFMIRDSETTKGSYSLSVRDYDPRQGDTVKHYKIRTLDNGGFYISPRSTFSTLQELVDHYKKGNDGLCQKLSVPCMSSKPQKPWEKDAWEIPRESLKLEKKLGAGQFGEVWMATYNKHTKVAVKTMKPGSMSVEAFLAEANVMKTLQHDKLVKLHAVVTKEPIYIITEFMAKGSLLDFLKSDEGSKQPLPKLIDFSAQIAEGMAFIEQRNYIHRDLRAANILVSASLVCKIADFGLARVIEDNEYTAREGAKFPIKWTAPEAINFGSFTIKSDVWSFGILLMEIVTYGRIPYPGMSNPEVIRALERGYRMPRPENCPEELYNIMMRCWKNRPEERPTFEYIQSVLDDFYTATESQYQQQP

[7] = biological target: T7, FGR (Homo sapiens, UniProt P09769); experiment: as above; format: cell-based
T7 construct: EGFP-fusion of wild-type FGR
T7 sequence (P09769 2-529): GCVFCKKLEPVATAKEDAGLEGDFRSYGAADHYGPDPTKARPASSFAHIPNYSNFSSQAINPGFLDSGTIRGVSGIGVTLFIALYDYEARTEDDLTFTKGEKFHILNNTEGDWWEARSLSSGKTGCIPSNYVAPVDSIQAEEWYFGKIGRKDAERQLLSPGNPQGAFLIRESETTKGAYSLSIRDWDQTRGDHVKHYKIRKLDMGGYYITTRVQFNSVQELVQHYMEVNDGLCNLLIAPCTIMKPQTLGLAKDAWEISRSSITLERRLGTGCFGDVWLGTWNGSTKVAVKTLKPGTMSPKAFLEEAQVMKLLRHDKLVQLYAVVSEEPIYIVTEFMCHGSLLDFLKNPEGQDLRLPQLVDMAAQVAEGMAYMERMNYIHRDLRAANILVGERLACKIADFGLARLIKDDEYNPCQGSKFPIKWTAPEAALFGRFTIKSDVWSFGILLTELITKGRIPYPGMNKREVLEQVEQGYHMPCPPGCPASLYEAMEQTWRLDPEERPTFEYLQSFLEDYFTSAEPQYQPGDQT

[8] = biological target: T8, ABL1 (Homo sapiens, UniProt P00519); experiment: Kinase-Glo Plus luminescence kinase assay; also live-cell co-localization competed by excess dasatinib; format: biochemical
T8 construct: recombinant active kinase ABL1
T8 sequence (P00519 whole entry): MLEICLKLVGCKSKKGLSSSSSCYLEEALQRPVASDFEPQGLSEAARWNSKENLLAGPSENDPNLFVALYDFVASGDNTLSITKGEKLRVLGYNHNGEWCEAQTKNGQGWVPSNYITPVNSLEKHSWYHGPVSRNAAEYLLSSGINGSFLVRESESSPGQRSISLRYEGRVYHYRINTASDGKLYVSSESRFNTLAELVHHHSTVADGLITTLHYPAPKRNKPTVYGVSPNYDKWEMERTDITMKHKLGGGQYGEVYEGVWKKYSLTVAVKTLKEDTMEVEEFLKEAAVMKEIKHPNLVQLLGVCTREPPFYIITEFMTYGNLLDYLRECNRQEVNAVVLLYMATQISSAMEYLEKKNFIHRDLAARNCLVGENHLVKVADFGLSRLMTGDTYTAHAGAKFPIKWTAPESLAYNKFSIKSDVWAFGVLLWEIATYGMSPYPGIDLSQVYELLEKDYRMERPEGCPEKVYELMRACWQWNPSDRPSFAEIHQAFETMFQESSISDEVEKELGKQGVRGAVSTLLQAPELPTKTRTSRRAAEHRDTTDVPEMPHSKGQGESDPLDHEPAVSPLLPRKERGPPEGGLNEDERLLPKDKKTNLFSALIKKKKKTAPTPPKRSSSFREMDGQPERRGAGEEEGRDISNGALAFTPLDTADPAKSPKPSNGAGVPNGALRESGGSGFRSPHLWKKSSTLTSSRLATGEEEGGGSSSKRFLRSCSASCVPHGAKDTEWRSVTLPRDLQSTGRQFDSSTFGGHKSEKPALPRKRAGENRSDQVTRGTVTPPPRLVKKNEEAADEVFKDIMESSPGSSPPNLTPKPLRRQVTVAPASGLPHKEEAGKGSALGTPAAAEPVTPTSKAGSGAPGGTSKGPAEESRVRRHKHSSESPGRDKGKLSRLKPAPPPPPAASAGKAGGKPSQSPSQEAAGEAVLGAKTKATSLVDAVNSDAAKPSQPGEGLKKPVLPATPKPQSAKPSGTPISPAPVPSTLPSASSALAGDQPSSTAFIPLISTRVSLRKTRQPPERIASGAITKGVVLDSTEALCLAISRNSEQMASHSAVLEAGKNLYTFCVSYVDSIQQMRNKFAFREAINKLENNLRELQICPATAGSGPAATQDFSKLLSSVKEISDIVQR

T1 sequence (P07948 2-491 isoform P07948-2): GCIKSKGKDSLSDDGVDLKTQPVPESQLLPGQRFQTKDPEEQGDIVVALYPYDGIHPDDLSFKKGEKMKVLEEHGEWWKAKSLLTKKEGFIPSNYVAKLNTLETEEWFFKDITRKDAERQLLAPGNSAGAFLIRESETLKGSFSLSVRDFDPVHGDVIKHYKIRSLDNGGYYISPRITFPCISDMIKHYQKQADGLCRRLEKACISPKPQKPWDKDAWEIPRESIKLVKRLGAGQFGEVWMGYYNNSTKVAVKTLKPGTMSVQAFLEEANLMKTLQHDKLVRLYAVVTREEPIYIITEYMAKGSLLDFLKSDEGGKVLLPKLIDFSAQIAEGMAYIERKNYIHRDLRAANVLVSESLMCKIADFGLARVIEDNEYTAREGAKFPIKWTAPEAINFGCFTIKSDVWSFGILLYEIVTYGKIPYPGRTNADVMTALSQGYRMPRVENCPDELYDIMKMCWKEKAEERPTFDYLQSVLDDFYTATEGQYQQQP

- IC50 [8]: 153 nM
SMILES: Cc1nc(Nc2ncc(C(=O)Nc3c(C)cccc3Cl)s2)cc(N2CCN(CCNC(=O)CCC(=O)NCCOCCOCCCCCCCl)CC2)n1 [dasatinib−HT ligand]
- live-cell confocal co-localization (HaloTag recruitment to endosome/F-actin) in [1]: the GFP-fusion kinase co-localized with the intracellular compartments
- Western blot of pY416 autophosphorylation of EGFP-SRC in HeLa cells; live-cell c [2]: the levels of active, phosphorylated SRC significantly decreased compared with those in vehicle-treated HeLa cells
- live-cell confocal co-localization (HaloTag recruitment to endosome/F-actin) in [3]: the GFP-fusion kinase co-localized with the intracellular compartments
- live-cell confocal co-localization (HaloTag recruitment to endosome/F-actin) in [4]: clearly showed binding events between dasatinib and its target kinases (ABL1, SRC, CSK, etc.) at specific subcellular structures
- live-cell confocal co-localization (HaloTag recruitment to endosome/F-actin) in [5]: the GFP-fusion kinase co-localized with the intracellular compartments
- live-cell confocal co-localization (HaloTag recruitment to endosome/F-actin) in [6]: the GFP-fusion kinase co-localized with the intracellular compartments
- live-cell confocal co-localization (HaloTag recruitment to endosome/F-actin) in [7]: the GFP-fusion kinase co-localized with the intracellular compartments
